Earlier results in patent publication US20170016004A1, “DDX5 AND ASSOCIATED NON-CODING RNAs AND MODULATION OF TH17 EFFECTOR FUNCTION” (priority 2015, published 2017).

Tested on: ileal and colonic SMAD7
Conditions: oral

mongersen
treatment of Crohn's Disease: used successfully
